Reference: US20080206311A1, “Sucrase Activity Inhibitor, Glucoamylase Activity Inhibitor and Food and Feed Containing the Same” (MITSUI SUGAR CO., LTD., priority 2005, published 2008)

How the values were obtained:
[1] = test system: small-intestinal enzyme liquid; test: Decomposition of a saccharide alone (control solution) by small-intestinal enzyme liquid; assay type: biochemical, rat; details: 5% saccharide alone; for Liberated galactose concentration: Test Example 3
Description: (§1) Palatinose (trade name: Palatinose IC, ex Shin Mitsui Sugar Co., Ltd.) (test sample) was used as a sample for investigating each enzyme activity inhibitory effect. Maltose and sucrose were used as substrates for maltase and sucrose, respectively. The test sample and the substrates were dissolved in 0.1 M phosphate buffer (pH 6.8) at the concentration shown in Table 1 below to prepare test solutions (Solutions 4 and 5). Also, the test sample or the substrates were dissolved in 0.1 M phosphate buffer (pH 6.8), respectively to at the concentration shown in Table 1 below to prepare control solutions (Solution 1 for the test sample and Solutions 2 and 3 for the substrates).
(§2) Two grams of rat small-intestinal acetone powder (ex Sigma Corporation) were dissolved in 20 ml of 0.1 M phosphate buffer (pH 6.8), left standing one day at 5° C., and subsequently subjected to centrifugal separation (8000 rpm×15 min.). The supernatant was filtered through a 0.8 μm membrane filter to obtain a small-intestinal enzyme liquid. This liquid contained a mixture of enzymes present in small intestine, such as sucrose, glucoamylase, maltase, and isomaltase.
(§3) Each 0.25 ml of the small-intestinal enzyme liquid was added to each 5 ml of Solutions 1 through 5 and placed in a water bath at 37° C. to allow them to react for 60 min. while shaken at 60 strokes/min. After the reaction, they were heated in a boiling water bath for 3 min. for inactivation of the enzymes.
(§4) The glucose concentration in each solution after the reaction was measured using the F-kit Glucose (ex Roche). A liberated glucose concentration (g/l) was calculated by subtracting the blank value (0.1 M phosphate buffer alone) and the concentration of glucose originally contained in the test sample from each glucose concentration measured.
The fructose concentration was measured using the F-kit Fructose (ex Roche). The liberated fructose concentration, g/l, was obtained by subtracting the blank value (0.1 M phosphate buffer alone) from the resultant fructose concentration.
(§5) The procedures in Example 1 were repeated with the exception that palatinit, palatinose or isomaltose was used as a test sample and lactose was used as a substrate. The test samples and the substrate were dissolved in 0.1 M phosphate buffer (pH 6.8) to attain the concentration shown in Table 5 to thereby prepare three test solutions. Besides, each of the test samples or the substrate was dissolved in 0.1 M phosphate buffer (pH 6.8) to attain the concentration shown in Table 5 to thereby prepare control solutions. Each 5 ml of the aforementioned test solutions and the control solutions was subjected to the enzymatic reaction according to the same procedures as in Example 1. The glucose concentration, the fructose concentration and the galactose concentration were measured. The galactose concentration was measured using F-kit Galactose (ex Roche). The liberated galactose concentration, g/l, was calculated by subtracting the blank value (0.1 M phosphate buffer alone) from the measured galactose concentration.

lactase = molecular target: T1, lactase (Rattus norvegicus, UniProt Q02401); test: Lactase activity inhibition with rat small-intestinal enzyme liquid, substrate lactose; assay type: biochemical; details: 5% lactose + 5% test sample
T1 construct: tissue Sigma Corporation; host or cells: rat small intestine (acetone powder), buffer extract, unpurified
T1 sequence (Q02401 868-1928): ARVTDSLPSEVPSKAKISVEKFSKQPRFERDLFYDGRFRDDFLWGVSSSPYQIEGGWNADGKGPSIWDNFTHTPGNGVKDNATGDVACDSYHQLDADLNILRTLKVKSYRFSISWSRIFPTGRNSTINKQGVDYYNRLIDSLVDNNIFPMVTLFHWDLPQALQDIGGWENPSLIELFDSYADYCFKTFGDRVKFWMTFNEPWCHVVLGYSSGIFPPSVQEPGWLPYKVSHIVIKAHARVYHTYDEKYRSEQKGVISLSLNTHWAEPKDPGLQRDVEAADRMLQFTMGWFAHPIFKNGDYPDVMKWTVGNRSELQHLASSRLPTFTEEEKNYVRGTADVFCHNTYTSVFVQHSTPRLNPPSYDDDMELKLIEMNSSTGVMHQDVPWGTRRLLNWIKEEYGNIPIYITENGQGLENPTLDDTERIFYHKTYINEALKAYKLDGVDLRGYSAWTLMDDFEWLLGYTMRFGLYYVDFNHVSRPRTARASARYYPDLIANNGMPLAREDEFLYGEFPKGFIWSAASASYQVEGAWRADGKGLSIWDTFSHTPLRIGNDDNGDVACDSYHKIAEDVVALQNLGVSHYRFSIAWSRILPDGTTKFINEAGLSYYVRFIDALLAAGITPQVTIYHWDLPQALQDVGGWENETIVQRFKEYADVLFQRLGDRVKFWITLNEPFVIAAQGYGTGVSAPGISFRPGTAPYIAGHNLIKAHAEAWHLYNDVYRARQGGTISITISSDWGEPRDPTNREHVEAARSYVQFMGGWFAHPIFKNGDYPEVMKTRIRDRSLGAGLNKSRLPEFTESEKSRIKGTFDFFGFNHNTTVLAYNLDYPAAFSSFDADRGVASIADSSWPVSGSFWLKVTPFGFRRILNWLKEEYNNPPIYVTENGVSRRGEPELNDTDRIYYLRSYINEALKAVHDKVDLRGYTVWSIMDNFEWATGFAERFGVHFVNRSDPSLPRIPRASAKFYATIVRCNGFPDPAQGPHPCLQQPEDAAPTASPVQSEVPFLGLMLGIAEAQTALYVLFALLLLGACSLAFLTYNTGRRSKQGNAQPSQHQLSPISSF
Description: as §2, §3, §4
(§6) Next, each of the liberated glucose concentration was input in the following equation to obtain decomposition inhibition ratio for maltase and sucrose. In the present tests, the substrates and the inhibitors were decomposed by enzymes present in the small-intestinal enzyme liquid. However, the enzymes decomposing the substrates are different from the enzymes decomposing the inhibitors. The decomposition inhibition ratio was determined as a measure for the inhibitory effect. When the inhibitor was added, the glucose concentration was lower than that seen when the substrate alone was reacted. A higher decomposition inhibition ratio means a stronger inhibitory effect.
(§7) Decomposition inhibition ratio,%={(A+B)−(AB)}+(A+B)×100 [Equation 1]
(§8) wherein (A+B) indicates a sum of a liberated glucose concentration in the control solution containing the test sample alone after the reaction (A) and a liberated glucose concentration in the control solution containing the substrate alone after the reaction (B); and (AB) indicates a liberated glucose concentration in the test solution containing the test sample (A) and the substrate (B), after the reaction.
as §5

sucrase = molecular target: T2, sucrase (Rattus norvegicus, UniProt P23739); test: Sucrase activity inhibition with rat small-intestinal enzyme liquid, substrate sucrose; assay type: biochemical
T2 construct: This liquid contained a mixture of enzymes present in small intestine, such as sucrose, glucoamylase, maltase, and isomaltase; tissue Sigma Corporation; host or cells: rat small intestine (acetone powder), buffer extract, unpurified
Description: as §1, §2, §3, §4, §6, §7, §8
The procedures in Example 1 were repeated with the exception that the test solutions contained 5% of sucrose and 0.5%, 1.0%, 3.0% or 5.0% of palatinose to examine intensity of the sucrose activity inhibition. A control solution contained 5% of sucrose in 0.1 M phosphate buffer (pH 6.8).
The procedures in Example 1 were repeated with the exception that palatinit and palatinose were used as test samples and sucrose was used as a substrate. The test samples and the substrate were dissolved in 0.1 M phosphate buffer (pH 6.8) to attain the concentration shown in Table 3 to thereby prepare two test solutions. Besides, each one of the test samples or the substrate was dissolved in 0.1 M phosphate buffer (pH 6.8) to attain the concentration shown in Table 3 to thereby prepare control solutions. Each 5 ml of the aforementioned test solutions or the control solutions was subjected to the enzymatic reaction according to the same procedures as in Example 1. The glucose concentration and the fructose concentration were measured. […]

glucoamylase = test: Glucoamylase activity inhibition with rat small-intestinal enzyme liquid, substrate soluble starch; assay type: biochemical; details: 5% soluble starch + 5% test sample
Description: as §2, §3, §4, §6, §7, §8
The procedures in Example 1 were repeated with the exception that palatinose and palatinit were used as a test sample and soluble starch was used as a substrate. The test samples and the substrate were dissolved in 0.1 M phosphate buffer (pH 6.8) to attain the concentration shown in Table 6 to thereby prepare two test solutions. Besides, each of the test samples or the substrate was dissolved in 0.1 M phosphate buffer (pH 6.8) to attain the concentration shown in Table 6 to thereby prepare control solutions. Each 5 ml of the aforementioned test solutions and the control solutions was subjected to the enzymatic reaction according to the same procedures as in Example 1 and the liberated glucose concentration and the decomposition inhibition ratio were measured.
The procedures in Example 1 were repeated with the exception that trehalulose was used as a test sample and soluble starch was used as a substrate. The test sample and the substrate were dissolved in 0.1 M phosphate buffer (pH 6.8) to attain the concentration shown in Table 9 to thereby prepare a test solution. Besides, the test sample or the substrate was dissolved in 0.1 M phosphate buffer (pH 6.8) to attain the concentration shown in Table 9 to thereby prepare control solutions. Each 5 ml of the aforementioned test solution and the control solutions was subjected to the enzymatic reaction according to the same procedures as in Example 1 and the liberated glucose concentration and the decomposition inhibition ratio were measured.
The procedures in Example 1 were repeated with the exception that trehalose was used as a test sample and soluble starch was used as a substrate. […]

[2] = 5% sucrose + 5% test sample, Example 3 / Test Example 2
[3] = 5% sucrose + 5% test sample, Example 5 / Test Example 4

T2 sequence (P23739 whole entry): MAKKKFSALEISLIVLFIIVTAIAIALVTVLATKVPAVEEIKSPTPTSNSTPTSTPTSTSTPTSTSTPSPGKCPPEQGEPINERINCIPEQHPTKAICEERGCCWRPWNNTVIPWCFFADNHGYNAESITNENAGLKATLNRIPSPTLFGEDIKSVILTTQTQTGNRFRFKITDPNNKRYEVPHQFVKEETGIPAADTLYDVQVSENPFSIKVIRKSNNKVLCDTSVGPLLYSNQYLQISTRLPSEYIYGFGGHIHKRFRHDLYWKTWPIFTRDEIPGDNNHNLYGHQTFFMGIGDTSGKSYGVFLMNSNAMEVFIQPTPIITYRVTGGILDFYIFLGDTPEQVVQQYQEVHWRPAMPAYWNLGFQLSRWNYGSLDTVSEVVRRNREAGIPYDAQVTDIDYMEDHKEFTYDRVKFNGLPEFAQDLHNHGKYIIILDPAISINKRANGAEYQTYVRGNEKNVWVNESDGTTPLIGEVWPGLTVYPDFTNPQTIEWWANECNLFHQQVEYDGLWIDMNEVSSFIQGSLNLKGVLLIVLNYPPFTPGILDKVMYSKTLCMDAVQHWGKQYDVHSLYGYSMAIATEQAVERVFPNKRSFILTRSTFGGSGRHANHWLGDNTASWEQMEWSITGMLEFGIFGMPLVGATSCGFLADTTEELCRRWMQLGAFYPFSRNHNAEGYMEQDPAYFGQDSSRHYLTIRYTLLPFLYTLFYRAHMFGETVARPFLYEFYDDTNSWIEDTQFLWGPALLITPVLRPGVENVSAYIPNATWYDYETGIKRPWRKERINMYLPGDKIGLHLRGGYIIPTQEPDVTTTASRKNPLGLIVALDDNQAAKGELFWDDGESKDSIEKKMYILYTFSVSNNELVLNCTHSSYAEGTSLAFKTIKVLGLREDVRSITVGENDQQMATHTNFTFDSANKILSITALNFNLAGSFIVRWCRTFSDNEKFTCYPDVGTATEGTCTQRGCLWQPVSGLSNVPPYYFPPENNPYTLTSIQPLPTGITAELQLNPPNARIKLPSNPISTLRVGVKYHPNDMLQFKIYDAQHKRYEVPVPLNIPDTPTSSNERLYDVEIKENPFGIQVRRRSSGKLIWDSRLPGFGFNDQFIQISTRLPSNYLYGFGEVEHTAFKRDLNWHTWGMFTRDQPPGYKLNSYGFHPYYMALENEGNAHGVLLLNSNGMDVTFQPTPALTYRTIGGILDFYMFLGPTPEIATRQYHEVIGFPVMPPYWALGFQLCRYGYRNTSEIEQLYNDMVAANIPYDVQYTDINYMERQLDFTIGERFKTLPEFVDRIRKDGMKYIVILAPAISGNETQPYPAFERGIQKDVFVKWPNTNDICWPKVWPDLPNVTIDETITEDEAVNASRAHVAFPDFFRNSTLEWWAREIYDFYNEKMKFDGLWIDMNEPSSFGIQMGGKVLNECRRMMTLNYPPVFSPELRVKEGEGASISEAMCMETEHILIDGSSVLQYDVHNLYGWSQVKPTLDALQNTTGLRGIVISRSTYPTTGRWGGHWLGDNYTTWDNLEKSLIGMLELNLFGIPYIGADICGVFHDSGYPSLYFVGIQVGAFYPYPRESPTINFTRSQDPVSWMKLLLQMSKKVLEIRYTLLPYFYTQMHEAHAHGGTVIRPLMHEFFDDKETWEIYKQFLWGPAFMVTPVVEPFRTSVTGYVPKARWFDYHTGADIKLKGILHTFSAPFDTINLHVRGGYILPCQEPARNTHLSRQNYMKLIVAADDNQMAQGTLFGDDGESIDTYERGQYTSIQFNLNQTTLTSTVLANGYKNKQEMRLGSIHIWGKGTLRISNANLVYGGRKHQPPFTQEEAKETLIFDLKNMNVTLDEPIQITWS

OC[C@H]1O[C@H](OC[C@H]2OC(O)[C@H](O)[C@@H](O)[C@@H]2O)[C@H](O)[C@@H](O)[C@@H]1O (stereo partly drawn) [isomaltose, reference compound]
Liberated fructose concentration ([1]; Example 3 / Test Examples 2, 3): 0.02 g/L
Liberated glucose concentration ([1]; Example 3 / Test Examples 2, 3): 2.14 g/L
Liberated galactose concentration [1]: 0.00 g/L
Decomposition inhibition ratio, %, against lactase (lactase): −1%
Lactase activity inhibitory effect (in words) (lactase): no lactose inhibitory effect was appreciable
Liberated fructose concentration (lactase): 0.00 g/L
Liberated galactose concentration (lactase): 0.06 g/L
Liberated glucose concentration (lactase): 2.41 g/L
Total concentration of liberated monosaccharides (glucose + fructose) (sucrase; 5% sucrose + 5% isomaltose): 2.88 g/L
Sucrase activity inhibitory effect (in words) (sucrase; 5% sucrose + 5% test sample): has a sucrose activity inhibitory effect
Decomposition inhibition ratio, %, against sucrase (sucrase; [2]): 31%
Liberated fructose concentration (sucrase; [2]): 0.70 g/L
Liberated glucose concentration (sucrase; [2]): 2.18 g/L

soluble starch
Liberated glucose concentration ([1]; Example 4): 4.657 g/L
Liberated glucose concentration ([1]; Example 6 / Test Example 5): 2.400 g/L

OC[C@H]1O[C@H](O[C@H]2O[C@H](CO)[C@@H](O)[C@H](O)[C@H]2O)[C@H](O)[C@@H](O)[C@@H]1O [trehalose, reference compound]
Liberated glucose concentration ([1]; Example 5 / Test Example 4, sucrase activity inhibition test): 1.656 g/L
Liberated glucose concentration ([1]; Example 6 / Test Example 5, glucoamylase activity inhibition test): 0.333 g/L
Glucoamylase activity inhibitory effect (in words) (glucoamylase): has a glucoamylase activity inhibitory effect, but the effect is very weak
Decomposition inhibition ratio, %, against glucoamylase (glucoamylase; Example 6 / Test Example 5): 14%
Liberated glucose concentration (glucoamylase; Example 6 / Test Example 5): 2.349 g/L
Sucrase activity inhibitory effect (in words) (sucrase; 5% sucrose + 5% test sample): substantially no sucrose activity inhibitory effect
Decomposition inhibition ratio, %, against sucrase (sucrase; [3]): 49%
Liberated glucose concentration (sucrase; [3]): 1.683 g/L

OC[C@H]1O[C@@H](O[C@H]2[C@H](O)[C@@H](O)C(O)O[C@@H]2CO)[C@H](O)[C@@H](O)[C@H]1O (stereo partly drawn) [lactose]
Liberated fructose concentration ([1]; Example 3 / Test Examples 2, 3): 0.00 g/L
Liberated glucose concentration ([1]; Example 3 / Test Examples 2, 3): 0.23 g/L
Liberated galactose concentration [1]: 0.16 g/L

OC[C@H]1O[C@H](O[C@H]2[C@H](O)[C@@H](O)[C@H](O)O[C@@H]2CO)[C@H](O)[C@@H](O)[C@@H]1O [maltose]
Liberated glucose concentration ([1]; 37° C., 60 min, pH 6.8, Example 1 / Test Example 1): 4.956 ± 0.423 g/L
